According to PMC12635268, “Novel antimicrobial peptides and peptide-microbiome crosstalk in Appalachian salamander skin” (NPJ Biofilms and Microbiomes, 2025):
Values after ≈ are worked out from the molar mass of the structure shown. Like-named read-outs stand apart in the source and are kept apart here.

Assays:
Assay in all cases: microbe, parasite or virus in culture
A. baumannii ATCC 19606 = settings: Acinetobacter baumannii
Procedure, shortened: (§1)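 Broth microdilution in cation-adjusted Mueller-Hinton broth, final inoculum 1 × 10⁵ CFU/mL, peptides 0.25 to 128 μg/mL in 0.02% TFA + 0.04% BSA. Duplicates incubated 20 h at 37 °C without agitation. MIC read visually per CLSI with image-analysis support.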

E. coli ATCC 35218 = settings: for Bacterial MIC: E. coli 35218; for MIC: Escherichia coli
Procedure, shortened: as §1

E. faecium ATCC 19434 = settings: Enterococcus faecium
Procedure, shortened: as §1

E. faecium ATCC 49224 = settings: Enterococcus faecium
Procedure, shortened: as §1

K. pneumoniae ATCC 13883 = settings: Klebsiella pneumoniae
Procedure, shortened: as §1

[1] = test system: K. pneumoniae ATCC 700603; settings: Klebsiella pneumoniae
Procedure, shortened: as §1

P. aeruginosa ATCC 27853 = settings: Pseudomonas aeruginosa
Procedure, shortened: as §1

P. aeruginosa MRSN 5519 = settings: Pseudomonas aeruginosa
Procedure, shortened: as §1

S. aureus ATCC 25923 = settings: for Bacterial MIC: S. aureus 25923; for MIC: Staphylococcus aureus
Procedure, shortened: as §1

S. aureus ATCC 43300 = settings: for Bacterial MIC: S. aureus 43300; for MIC: Staphylococcus aureus
Procedure, shortened: as §1

P. aeruginosa PA01 = assay type: cell-based; settings: Pseudomonas aeruginosa
Procedure, shortened: as §1

P. aeruginosa PA01 (Si) = assay type: cell-based; settings: P. aeruginosa PA01 (Si), not typical ESKAPEE strain
From the text: Supplement 41522_2025_837_MOESM13_ESM.xlsx, sheet "Table_S13_ESKAPEE-MIC" | column: Bacterial MIC (µg/mL)

C[C@H]1COc2c(N3CCN(C)CC3)c(F)cc3c(=O)c(C(=O)O)cn1c23 [Levofloxacin, reference compound] was tested, and the MIC (A. baumannii ATCC 19606; ATCC19606, 20 h, A. baumannii 19606, CAMHB, 1 × 10⁵ CFU/mL, 0.25 to 128 μg/mL, 37 °C 20 h, duplicate, read visually (CLSI)) was 0.25 µg/mL (≈ 0.692 µM), the MIC (A. baumannii ATCC 19606; ATCC19606, read-out: Bacterial MIC, A. baumannii 19606, Historical run 15NOV23) was 0.5 µg/mL (≈ 1.38 µM) and the MIC (A. baumannii ATCC 19606; ATCC19606, read-out: Bacterial MIC, A. baumannii 19606, Historical run 19APRIL23) was 0.5 µg/mL (≈ 1.38 µM). It also gave an MIC (A. baumannii ATCC 19606; ATCC19606, read-out: Bacterial MIC, A. baumannii 19606, Historical run 22NOV23) of no more than 0.25 µg/mL, an MIC (A. baumannii ATCC 19606; ATCC19606, read-out: Bacterial MIC, A. baumannii 19606, Week 1 (12/6/2023)) of no more than 0.25 µg/mL and an MIC (A. baumannii ATCC 19606; ATCC19606, read-out: Bacterial MIC, A. baumannii 19606, Week 2 (12/14/2023)) of no more than 0.25 µg/mL. For the same compound, the “Bacterial MIC” value (E. coli ATCC 35218; Historical run 15NOV23) was “<= 0.250 µg/mL”, the “Bacterial MIC” value (E. coli ATCC 35218; Historical run 19APRIL23) was “<= 0.250 µg/mL” and the “Bacterial MIC” value (E. coli ATCC 35218; Historical run 22NOV23) was “<= 0.250 µg/mL”. For the same compound, the “Bacterial MIC” value (E. coli ATCC 35218; Week 2 (12/14/2023)) was “<= 0.250 µg/mL”, the MIC (E. coli ATCC 35218; ATCC35218, 20 h) was 0.25 µg/mL (≈ 0.692 µM) and the MIC (E. coli ATCC 35218; ATCC35218, read-out: Bacterial MIC) was no more than 0.25 µg/mL. For the same compound, the MIC (E. faecium ATCC 19434; ATCC19434, 20 h, E. faecium 19434, CAMHB, 1 × 10⁵ CFU/mL, 0.25 to 128 μg/mL, 37 °C 20 h, duplicate, read visually (CLSI)) was 4 µg/mL (≈ 11.1 µM), the MIC (E. faecium ATCC 19434; ATCC19434, read-out: Bacterial MIC, E. faecium 19434, Historical run 15NOV23) was 4 µg/mL (≈ 11.1 µM) and the MIC (E. faecium ATCC 19434; ATCC19434, read-out: Bacterial MIC, E. faecium 19434, Historical run 19APRIL23) was 4 µg/mL (≈ 11.1 µM). It also gave an MIC (E. faecium ATCC 19434; ATCC19434, read-out: Bacterial MIC, E. faecium 19434, Historical run 22NOV23) of 2 µg/mL (≈ 5.53 µM), an MIC (E. faecium ATCC 19434; ATCC19434, read-out: Bacterial MIC, E. faecium 19434, Week 1 (12/6/2023)) of 4 µg/mL (≈ 11.1 µM) and an MIC (E. faecium ATCC 19434; ATCC19434, read-out: Bacterial MIC, E. faecium 19434, Week 2 (12/14/2023)) of 4 to 8 µg/mL (≈ 11.1 to 22.1 µM). For the same compound, the MIC (E. faecium ATCC 49224; ATCC49224, 20 h, E. faecium 49224, CAMHB, 1 × 10⁵ CFU/mL, 0.25 to 128 μg/mL, 37 °C 20 h, duplicate, read visually (CLSI)) was 2 µg/mL (≈ 5.53 µM), the MIC (E. faecium ATCC 49224; ATCC49224, read-out: Bacterial MIC, E. faecium 49224, Historical run 15NOV23) was 1 µg/mL (≈ 2.77 µM) and the MIC (E. faecium ATCC 49224; ATCC49224, read-out: Bacterial MIC, E. faecium 49224, Historical run 19APRIL23) was 2 µg/mL (≈ 5.53 µM). It also gave an MIC (E. faecium ATCC 49224; ATCC49224, read-out: Bacterial MIC, E. faecium 49224, Historical run 22NOV23) of 1 µg/mL (≈ 2.77 µM), an MIC (E. faecium ATCC 49224; ATCC49224, read-out: Bacterial MIC, E. faecium 49224, Week 1 (12/6/2023)) of 2 µg/mL (≈ 5.53 µM) and an MIC (E. faecium ATCC 49224; ATCC49224, read-out: Bacterial MIC, E. faecium 49224, Week 2 (12/14/2023)) of 2 µg/mL (≈ 5.53 µM). For the same compound, the MIC (K. pneumoniae ATCC 13883; ATCC13883, 20 h, K. pneumoniae 13883, CAMHB, 1 × 10⁵ CFU/mL, 0.25 to 128 μg/mL, 37 °C 20 h, duplicate, read visually (CLSI)) was 0.25 µg/mL (≈ 0.692 µM), the MIC (K. pneumoniae ATCC 13883; ATCC13883, read-out: Bacterial MIC, K. pneumoniae 13883, Historical run 15NOV23) was no more than 0.25 µg/mL and the MIC (K. pneumoniae ATCC 13883; ATCC13883, read-out: Bacterial MIC, K. pneumoniae 13883, Historical run 19APRIL23) was 0.25 to 0.5 µg/mL (≈ 0.692 to 1.38 µM). For the same compound, the MIC (K. pneumoniae ATCC 13883; ATCC13883, read-out: Bacterial MIC, K. pneumoniae 13883, Historical run 22NOV23) was no more than 0.25 µg/mL, the MIC (K. pneumoniae ATCC 13883; ATCC13883, read-out: Bacterial MIC, K. pneumoniae 13883, Week 1 (12/6/2023)) was no more than 0.25 µg/mL and the MIC (K. pneumoniae ATCC 13883; ATCC13883, read-out: Bacterial MIC, K. pneumoniae 13883, Week 2 (12/14/2023)) was no more than 0.25 µg/mL. The MIC ([1]; ATCC700603, 20 h, K. pneumoniae 700603, CAMHB, 1 × 10⁵ CFU/mL, 0.25 to 128 μg/mL, 37 °C 20 h, duplicate, read visually (CLSI)) was 0.5 µg/mL (≈ 1.38 µM), the MIC ([1]; ATCC700603, read-out: Bacterial MIC, K. pneumoniae 700603, Historical run 15NOV23) was 0.5 µg/mL (≈ 1.38 µM) and the MIC ([1]; ATCC700603, read-out: Bacterial MIC, K. pneumoniae 700603, Historical run 19APRIL23) was 0.5 to 1 µg/mL (≈ 1.38 to 2.77 µM). The MIC ([1]; ATCC700603, read-out: Bacterial MIC, K. pneumoniae 700603, Historical run 22NOV23) was no more than 0.25 µg/mL, the MIC ([1]; ATCC700603, read-out: Bacterial MIC, K. pneumoniae 700603, Week 1 (12/6/2023)) was 0.5 µg/mL (≈ 1.38 µM) and the MIC ([1]; ATCC700603, read-out: Bacterial MIC, K. pneumoniae 700603, Week 2 (12/14/2023)) was 0.5 µg/mL (≈ 1.38 µM). The MIC (P. aeruginosa ATCC 27853; ATCC27853, 20 h, P. aeruginosa 27853, CAMHB, 1 × 10⁵ CFU/mL, 0.25 to 128 μg/mL, 37 °C 20 h, duplicate, read visually (CLSI)) was 0.5 µg/mL (≈ 1.38 µM), the MIC (P. aeruginosa ATCC 27853; ATCC27853, read-out: Bacterial MIC, P. aeruginosa 27853, Historical run 15NOV23) was 1 µg/mL (≈ 2.77 µM) and the MIC (P. aeruginosa ATCC 27853; ATCC27853, read-out: Bacterial MIC, P. aeruginosa 27853, Historical run 19APRIL23) was 1 µg/mL (≈ 2.77 µM). It also gave an MIC (P. aeruginosa ATCC 27853; ATCC27853, read-out: Bacterial MIC, P. aeruginosa 27853, Historical run 22NOV23) of 0.5 µg/mL (≈ 1.38 µM), an MIC (P. aeruginosa ATCC 27853; ATCC27853, read-out: Bacterial MIC, P. aeruginosa 27853, Week 1 (12/6/2023)) of 0.5 µg/mL (≈ 1.38 µM) and an MIC (P. aeruginosa ATCC 27853; ATCC27853, read-out: Bacterial MIC, P. aeruginosa 27853, Week 2 (12/14/2023)) of 0.5 µg/mL (≈ 1.38 µM). The MIC (P. aeruginosa MRSN 5519; MRSN5519, 20 h, P. aeruginosa 5519, CAMHB, 1 × 10⁵ CFU/mL, 0.25 to 128 μg/mL, 37 °C 20 h, duplicate, read visually (CLSI)) was 32 µg/mL (≈ 88.6 µM), the MIC (P. aeruginosa MRSN 5519; MRSN5519, read-out: Bacterial MIC, P. aeruginosa 5519, Historical run 15NOV23) was 64 µg/mL (≈ 177 µM) and the MIC (P. aeruginosa MRSN 5519; MRSN5519, read-out: Bacterial MIC, P. aeruginosa 5519, Historical run 19APRIL23) was 64 µg/mL (≈ 177 µM). For the same compound, the MIC (P. aeruginosa MRSN 5519; MRSN5519, read-out: Bacterial MIC, P. aeruginosa 5519, Historical run 22NOV23) was 32 µg/mL (≈ 88.6 µM), the MIC (P. aeruginosa MRSN 5519; MRSN5519, read-out: Bacterial MIC, P. aeruginosa 5519, Week 1 (12/6/2023)) was 32 µg/mL (≈ 88.6 µM) and the MIC (P. aeruginosa MRSN 5519; MRSN5519, read-out: Bacterial MIC, P. aeruginosa 5519, Week 2 (12/14/2023)) was 32 µg/mL (≈ 88.6 µM). For the same compound, the “Bacterial MIC” value (S. aureus ATCC 25923; Historical run 15NOV23) was “<= 0.250 µg/mL”, the “Bacterial MIC” value (S. aureus ATCC 25923; Historical run 19APRIL23) was “<= 0.250 µg/mL” and the “Bacterial MIC” value (S. aureus ATCC 25923; Historical run 22NOV23) was “<= 0.250 µg/mL”. For the same compound, the “Bacterial MIC” value (S. aureus ATCC 25923; Week 2 (12/14/2023)) was “<= 0.250 µg/mL”, the MIC (S. aureus ATCC 25923; ATCC25923, 20 h) was 0.25 µg/mL (≈ 0.692 µM) and the MIC (S. aureus ATCC 25923; ATCC25923, read-out: Bacterial MIC) was no more than 0.25 µg/mL. For the same compound, the “Bacterial MIC” value (S. aureus ATCC 43300; Historical run 15NOV23) was “<= 0.250 µg/mL”, the “Bacterial MIC” value (S. aureus ATCC 43300; Historical run 19APRIL23) was “<= 0.250 µg/mL” and the “Bacterial MIC” value (S. aureus ATCC 43300; Historical run 22NOV23) was “<= 0.250 µg/mL”. For the same compound, the “Bacterial MIC” value (S. aureus ATCC 43300; Week 2 (12/14/2023)) was “<= 0.250 µg/mL”, the MIC (S. aureus ATCC 43300; ATCC43300, 20 h) was 0.25 µg/mL (≈ 0.692 µM) and the MIC (S. aureus ATCC 43300; ATCC43300, read-out: Bacterial MIC) was no more than 0.25 µg/mL. The MIC (P. aeruginosa PA01; PA01, 20 h, P. aeruginosa PA01, CAMHB, 1 × 10⁵ CFU/mL, 0.25 to 128 μg/mL, 37 °C 20 h, duplicate, read visually (CLSI), read-out: MIC) was 8 µg/mL (≈ 22.1 µM), the MIC (P. aeruginosa PA01; PAO1, P. aeruginosa 15692 (PAO1), Historical run 15NOV23, read-out: Bacterial MIC) was 0.5 µg/mL (≈ 1.38 µM) and the MIC (P. aeruginosa PA01; PAO1, P. aeruginosa 15692 (PAO1), Historical run 19APRIL23, read-out: Bacterial MIC) was 0.5 µg/mL (≈ 1.38 µM). The MIC (P. aeruginosa PA01; PAO1, P. aeruginosa 15692 (PAO1), Historical run 22NOV23, read-out: Bacterial MIC) was no more than 0.25 µg/mL, the MIC (P. aeruginosa PA01; PAO1, P. aeruginosa 15692 (PAO1), Week 2 (12/14/2023), read-out: Bacterial MIC) was no more than 0.25 µg/mL and the “Bacterial MIC” value (P. aeruginosa PA01 (Si); Week 2 (12/14/2023)) was 8 µg/mL. It also gave an MIC (P. aeruginosa PA01 (Si); Pseudomonas aeruginosa, Week 1 (12/6/2023), read-out: Bacterial MIC) of 8 µg/mL (≈ 22.1 µM).
